Reference: patent US10196657B2, “Methods of producing 7-carbon chemicals via methyl-ester shielded carbon chain elongation” (INVISTA North America S.á r.l., priority 2012, dated 2019)

Key:
Format in all cases: biochemical
[1] = ω-transaminase activity assay, reverse direction (7-aminoheptanoate to pimelate semialdehyde); details: cell free extract, 10 mM 7-aminoheptanoate, 10 mM pyruvate, 25° C., 4 h; against empty vector control; FIG. 15
Description: (§1) A sequence encoding an N-terminal His-tag was added to the genes from Chromobacterium violaceum, Pseudomonas syringae, Rhodobacter sphaeroides, and Vibrio Fluvialis encoding the ω-transaminases of SEQ ID NOs: 8, 10, 11 and 13, respectively (see FIGS. 7F and 7G) such that N-terminal HIS tagged ω-transaminases could be produced. Each of the resulting modified genes was cloned into a pET21a expression vector under control of the T7 promoter and each expression vector was transformed into a BL21[DE3] E. coli host. The resulting recombinant E. coli strains were cultivated at 37° C. in a 250 mL shake flask culture containing 50 mL LB media and antibiotic selection pressure, with shaking at 230 rpm. Each culture was induced overnight at 16° C. using 1 mM IPTG.
(§2) The pellet from each induced shake flask culture was harvested via centrifugation. Each pellet was resuspended and lysed via sonication. The cell debris was separated from the supernatant via centrifugation and the cell free extract was used immediately in enzyme activity assays.
Enzyme activity assays in the reverse direction (i.e., 7-aminoheptanoate to pimelate semialdehyde) were performed in a buffer composed of a final concentration of 50 mM HEPES buffer (pH=7.5), 10 mM 7-aminoheptanoate, 10 mM pyruvate and 100 μM pyridoxyl 5′ phosphate. […] The formation of L-alanine from pyruvate was quantified via RP-HPLC.

[2] = ω-transaminase activity assay, 7-aminoheptanol to 7-oxoheptanol
Description: A nucleotide sequence encoding an N-terminal His-tag was added to the Chromobacterium violaceum, Pseudomonas syringae and Rhodobacter sphaeroides genes encoding the ω-transaminases of SEQ ID NOs: 8, 10 and 11, respectively (see FIGS. 7F and 7G) such that N-terminal HIS tagged ω-transaminases could be produced. The modified genes were cloned into a pET21a expression vector under the T7 promoter. Each expression vector was transformed into a BL21[DE3] E. coli host. Each resulting recombinant E. coli strain were cultivated at 37° C. in a 250 mL shake flask culture containing 50 mL LB media and antibiotic selection pressure, with shaking at 230 rpm. Each culture was induced overnight at 16° C. using 1 mM IPTG.
as §2
Enzyme activity assays in the reverse direction (i.e., 7-aminoheptanol to 7-oxoheptanol) were performed in a buffer composed of a final concentration of 50 mM HEPES buffer (pH=7.5), 10 mM 7-aminoheptanol, 10 mM pyruvate, and 100 μM pyridoxyl 5′ phosphate. […] The formation of L-alanine was quantified via RP-HPLC.

[3] = ω-transaminase activity assay, forward direction (pimelate semialdehyde to 7-aminoheptanoate)
Description: as §1, §2
Enzyme activity in the forward direction (i.e., pimelate semialdehyde to 7-aminoheptanoate) was confirmed for the transaminases of SEQ ID NO 10, SEQ ID NO 11 and SEQ ID NO 13. […] The formation of pyruvate was quantified via RP-HPLC.

acceptance of 7-aminoheptanoate as substrate (formation of L-alanine from pyruvate, RP-HPLC) [1]: accepted 7-aminoheptanote as substrate
acceptance of 7-aminoheptanol as substrate (formation of L-alanine, RP-HPLC) ([2]; cell free extract, 10 mM 7-aminoheptanol, 10 mM pyruvate, 25° C., 4 h, against empty vector control, FIG. 19): accepted 7-aminoheptanol as substrate
acceptance of 7-oxoheptanol as substrate, forming 7-aminoheptanol (concluded from reversibility) ([2]; concluded from reversibility of the ω-transaminase activity (Example 2)): accept 7-oxoheptanol as substrate
Substance: SEQ ID NO 11: Rhodobacter sphaeroides ω-transaminase, Genbank Accession No. ABA81135.1
acceptance of pimelate semialdehyde as substrate (formation of pyruvate from L-alanine, RP-HPLC) ([3]; cell free extract, 10 mM pimelate semialdehyde, 10 mM L-alanine, 25° C., 4 h, against empty vector control, FIG. 16): accepted pimelate semialdehyde as substrate
acceptance of pimelate semialdehyde as substrate, synthesizing 7-aminoheptanoate (conclusion from confirmed reversibility) ([3]; concluded from reversibility of the ω-transaminase activity): accepted pimelate semialdehyde as substrate
